From patent US20240279236A1, “COMPOUNDS AND METHODS OF TREATING TUBERCULOSIS” (Fimbrion Therapeutics, Inc., priority 2021, published 2024)

System: WT Mtb Erdman strain
Assay: Microplate Alamar Blue Assay (MABA), Mtb growth inhibition
Type: cell-based, Mycobacterium tuberculosis
Details: Mycobacterium tuberculosis, ERDMAN, 168 h, Middlebrook 7H9 media, 7 days at 37° C. in 5% CO2

Structure (SMILES)	IC50 [nM]
Cc1cc2c(N[C@@H]3C[C@H]3c3ccc(F)c(F)c3)nc(C3CC3)nc2s1 [Example 43, 2-cyclopropyl-N-((1R,2S)-2-(3,4-difluorophenyl)cyclopropyl)-6-methylthieno[2,3-d]pyrimidin-4-amine]	2400
Cc1cc2c(N[C@@H]3C[C@H]3c3ccc(F)c(F)c3)nc(-c3cccnc3)nc2s1 [Example 44, N-((1R,2S)-2-(3,4-difluorophenyl)cyclopropyl)-6-methyl-2-(pyridin-3-yl)thieno[2,3-d]pyrimidin-4-amine]	6300
Fc1ccc([C@@H]2C[C@H]2Nc2nc(-c3ccccn3)nc3sc(C(F)(F)F)cc23)cc1F [Example 45, N-((1R,2S)-2-(3,4-difluorophenyl)cyclopropyl)-2-(pyridin-2-yl)-6-(trifluoromethyl)thieno [2,3-d]pyrimidin-4-amine]	2800
Cc1cc2c(N[C@@H]3C[C@H]3c3ccc(F)c(F)c3)nc(-c3ccc(F)cn3)nc2s1 [Example 46, N-((1R,2S)-2-(3,4-difluorophenyl)cyclopropyl)-2-(5-fluoropyridin-2-yl)-6-methylthieno[2,3-d]pyrimidin-4-amine]	2200
Cc1cc2c(N[C@@H]3C[C@H]3c3ccc(F)c(F)c3)nc(-c3ccncc3)nc2s1 [Example 47, N-((1R,2S)-2-(3,4-difluorophenyl)cyclopropyl)-6-methyl-2-(pyridin-4-yl)thieno[2,3-d]pyrimidin-4-amine]	> 8800
Cc1cc2c(NCCCc3ccc(C(F)(F)F)cc3)nc(C(F)(F)F)nc2s1 [Example 48, 6-methyl-2-(trifluoromethyl)-N-(3-(4-(trifluoromethyl)phenyl)propyl)thieno[2,3-d] pyrimidin-4-amine]	2600
COc1ccc(CCCNc2nc(C(F)(F)F)nc3sc(C)cc23)cc1 [Example 49, N-(3-(4-methoxyphenyl)propyl)-6-methyl-2-(trifluoromethyl)thieno [2,3-d]pyrimidin-4-amine]	2000
Cc1cc2c(N[C@@H]3C[C@H]3c3ccc(F)c(F)c3)nc(C(C)(F)F)nc2s1 [Example 50, 2-(1,1-difluoroethyl)-N-((1R,2S)-2-(3,4-difluorophenyl)cyclopropyl)-6-methylthieno[2,3-d]pyrimidin-4-amine]	1100
Cc1cc2c(NCCCc3ccccc3)nc(C(C)(C)C)nc2s1 [Example 51, 2-(tert-butyl)-6-methyl-N-(3-phenylpropyl)thieno [2,3-d]pyrimidin-4-amine]	> 10000
CCCc1nc(N[C@@H]2C[C@H]2c2ccc(F)c(F)c2)c2cc(C)sc2n1 [Example 52, N-((1R,2S)-2-(3,4-difluorophenyl)cyclopropyl)-6-methyl-2-propylthieno[2,3-d]pyrimidin-4-amine]	810
CSc1nc(N[C@@H]2C[C@H]2c2ccc(F)c(F)c2)c2cc(C)sc2n1 [Example 53, N-((1R,2S)-2-(3,4-difluorophenyl)cyclopropyl)-6-methyl-2-(methylthio)thieno[2,3-d]pyrimidin-4-amine]	240
CCCc1nc(NCCCc2ccccc2)c2cc(C)sc2n1 [Example 54, 6-methyl-N-(3-phenylpropyl)-2-propylthieno[2,3-d]pyrimidin-4-amine]	310
CSc1nc(NCCCc2ccccc2)c2cc(C)sc2n1 [Example 55, 6-methyl-2-(methylthio)-N-(3-phenylpropyl)thieno [2,3-d]pyrimidin-4-amine]	17
Cc1cc2c(N[C@@H]3C[C@H]3c3ccc(F)c(F)c3)nc(-c3ccc(F)cc3)nc2s1 [Example 56, N-((1R,2S)-2-(3,4-difluorophenyl)cyclopropyl)-2-(4-fluorophenyl)-6-methylthieno[2,3-d]pyrimidin-4-amine]	4200
Cc1cc2c(NCCCc3ccccc3)nc(-c3ncco3)nc2s1 [Example 57, 6-methyl-2-(oxazol-2-yl)-N-(3-phenylpropyl)thieno [2,3-d]pyrimidin-4-amine]	4100
Cc1cc2c(NCCCc3ccccc3)nc(C3(N)CC3)nc2s1 [Example 58, 2-(1-aminocyclopropyl)-6-methyl-N-(3-phenylpropyl)thieno [2,3-d]pyrimidin-4-amine]	5000

Structure (SMILES)	IC50 [nM]
CCc1nc(NCCCc2ccc(F)c(F)c2)c2cc(C)sc2n1 [Example 59, N-(3-(3,4-difluorophenyl)propyl)-2-ethyl-6-methylthieno[2,3-d]pyrimidin-4-amine]	430
Cc1cc2c(NCCCc3ccc(F)c(F)c3)nc(C(F)(F)F)nc2s1 [Example 60, N-(3-(3,4-difluorophenyl)propyl)-6-methyl-2-(trifluoromethyl)thieno [2,3-d]pyrimidin-4-amine]	4900
CCc1nc(NC/C=C/c2ccccc2)c2cc(C)sc2n1 [Example 61, N-cinnamyl-2-ethyl-6-methylthieno[2,3-d]pyrimidin-4-amine]	70
CCc1nc(NCCNc2ccccc2)c2cc(C)sc2n1 [Example 62, N1-(2-ethyl-6-methylthieno[2,3-d]pyrimidin-4-yl)-N2-phenylethane-1,2-diamine]	810
Cc1cc2c(NCCCc3ccccc3)nc(-c3cccs3)nc2s1 [Example 63, 6-methyl-N-(3-phenylpropyl)-2-(thiophen-2-yl)thieno[2,3-d]pyrimidin-4-amine]	1900
CCc1nc(NCCCOc2ccccc2)c2cc(C)sc2n1 [Example 64, 2-ethyl-6-methyl-N-(3-phenoxypropyl)thieno [2,3-d]pyrimidin-4-amine]	1700
CCc1nc(NCCOc2ccc(Br)cc2)c2cc(C)sc2n1 [Example 65, N-(2-(4-bromophenoxy)ethyl)-2-ethyl-6-methylthieno[2,3-d]pyrimidin-4-amine]	2800
CCc1nc(NCCC(C)(C)c2ccccc2)c2cc(C)sc2n1 [Example 66, 2-ethyl-6-methyl-N-(3-methyl-3-phenylbutyl)thieno [2,3-d]pyrimidin-4-amine]	6000
CCc1nc(NCCc2ccc(O)cc2)c2cc(C)sc2n1 [Example 67, 4-(2-((2-ethyl-6-methylthieno[2,3-d]pyrimidin-4-yl)amino)ethyl)phenol]	> 10000
CCc1nc(NCCS(=O)(=O)c2ccccc2)c2cc(C)sc2n1 [Example 68, 2-ethyl-6-methyl-N-(2-(phenylsulfonyl)ethyl) thieno[2,3-d]pyrimidin-4-amine]	> 10000
CCc1nc(NCCCOc2ccc(Cl)cc2)c2cc(C)sc2n1 [Example 69, N-(3-(4-chlorophenoxy)propyl)-2-ethyl-6-methylthieno[2,3-d]pyrimidin-4-amine]	1100
CCc1nc(NCCCc2ccc(O)cc2)c2cc(C)sc2n1 [Example 70, 4-(3-((2-ethyl-6-methylthieno[2,3-d]pyrimidin-4-yl)amino)propyl) phenol]	230
CSc1nc(NCCCOc2ccc(Cl)cc2)c2cc(C)sc2n1 [Example 71, N-(3-(4-chlorophenoxy)propyl)-6-methyl-2-(methylthio)thieno[2,3-d]pyrimidin-4-amine]	350
Cc1cc2c(NCCCOc3ccc(Cl)cc3)nc(C(F)(F)F)nc2s1 [Example 72, N-(3-(4-chlorophenoxy)propyl)-6-methyl-2-(trifluoromethyl)thieno [2,3-d]pyrimidin-4-amine]	3900
Cc1cc2c(NCCCc3ccccc3)nc(C(C)(C)N)nc2s1 [Example 73, 2-(2-aminopropan-2-yl)-6-methyl-N-(3-phenylpropyl)thieno [2,3-d]pyrimidin-4-amine]	> 10000
